From patent US7812053B2, “4-((phenoxyalkyl)thio)-phenoxyacetic acids and analogs” (Janssen Pharmaceuticals NV, priority 2004, dated 2010)
Where “and” joins values, the source holds several entries; their conditions need not be identical. Identical values can stand only once.

How the values were obtained:
[1] = target: T1, PPARγ ligand binding domain fused to the yeast GAL4 DNA binding domain (Homo sapiens, UniProt P37231); test: Transfection assay for PPAR receptors (GAL4-LBD luciferase reporter), PPAR gamma; type: cell-based; settings: HEK293 cells, GAL4 (UAS) luciferase reporter, 18-24 hrs
T1 construct: expressed in transfected cells; host or cells: HEK293
T1 sequence (P37231 238-503 limits assumed): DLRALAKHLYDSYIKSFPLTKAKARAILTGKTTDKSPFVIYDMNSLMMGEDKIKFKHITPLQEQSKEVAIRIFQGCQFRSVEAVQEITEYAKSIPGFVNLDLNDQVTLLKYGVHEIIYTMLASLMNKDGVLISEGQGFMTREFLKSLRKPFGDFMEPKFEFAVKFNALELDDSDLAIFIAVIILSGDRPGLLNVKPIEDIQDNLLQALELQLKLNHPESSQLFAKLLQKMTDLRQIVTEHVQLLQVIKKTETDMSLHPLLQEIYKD
Experimental: (§1) Transfection Assay Method for PPAR Receptors
(§2) HEK293 cells were grown in DMEM/F12 medium supplemented with 10% FBS and glutamine (Invitrogen) and incubated in a 5% CO2 incubator at 37° C. The cells were co-transfected using DMRIE-C reagent (Invitrogen) in serum free medium (Opti-MEM, Invitrogen) with two mammalian expression plasmids, one containing the DNA sequence coding for the ligand binding domains of either PPARα, γ or δ fused to the yeast GAL4 DNA binding domain and the other containing the promoter sequence of the yeast GAL4 (UAS) fused to the firefly luciferase cDNA reporter. The next day, the medium was changed to DMEM/F12 medium supplemented with 5% charcoal treated serum (Hyclone) and glutamine. After 6 hrs the cells were trypsinized and seeded at a density of 50,000 cells/well into 96 well plates and incubated overnight as above. The cells were then treated with test compounds or vehicle and incubated for 18-24 hrs as above. Luciferase reporter activity was measured using the Steady-Glo Luciferase Assay Kit from Promega. DMRIE-C Reagent was purchased from GIBCO Cat. No. 10459-014. OPTI-MEM I Reduced Serum Medium was purchased from GIBCO (Cat. No. 31985). Steady-Glo Luciferase Assay Kit was purchased from Promega (Part# E254B).
A variety of example compounds have been made and tested, with a range of in vitro results. […]

[2] = target: T2, PPARδ ligand binding domain fused to the yeast GAL4 DNA binding domain (Homo sapiens, UniProt Q03181); test: Transfection assay for PPAR receptors (GAL4-LBD luciferase reporter), PPAR delta; type: cell-based; settings: HEK293 cells, GAL4 (UAS) luciferase reporter, 18-24 hrs; multiple values = multiple measurements
T2 construct: expressed in transfected cells; host or cells: HEK293
T2 sequence (Q03181 211-439 limits assumed): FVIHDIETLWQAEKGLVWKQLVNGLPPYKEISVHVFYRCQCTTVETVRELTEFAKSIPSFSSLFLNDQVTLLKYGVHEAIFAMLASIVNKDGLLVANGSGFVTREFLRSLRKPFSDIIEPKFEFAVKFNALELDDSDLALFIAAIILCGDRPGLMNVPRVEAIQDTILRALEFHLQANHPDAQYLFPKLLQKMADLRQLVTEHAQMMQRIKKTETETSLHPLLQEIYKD
Experimental: as §1, §2
(§3) A variety of example compounds have been made and tested, with a range of in vitro results. Below are representative compounds and data; in some cases, where multiple EC50's are shown, multiple measurements were taken. Naturally, different compounds in Formula (I) may have not have activities identical to any one compound below.

[3] = target: T3, PPARα ligand binding domain fused to the yeast GAL4 DNA binding domain (Homo sapiens, UniProt Q07869); test: Transfection assay for PPAR receptors (GAL4-LBD luciferase reporter), PPAR alpha; type: cell-based; settings: HEK293 cells, GAL4 (UAS) luciferase reporter, 18-24 hrs
T3 construct: expressed in transfected cells; host or cells: HEK293
T3 sequence (Q07869 239-466 limits assumed): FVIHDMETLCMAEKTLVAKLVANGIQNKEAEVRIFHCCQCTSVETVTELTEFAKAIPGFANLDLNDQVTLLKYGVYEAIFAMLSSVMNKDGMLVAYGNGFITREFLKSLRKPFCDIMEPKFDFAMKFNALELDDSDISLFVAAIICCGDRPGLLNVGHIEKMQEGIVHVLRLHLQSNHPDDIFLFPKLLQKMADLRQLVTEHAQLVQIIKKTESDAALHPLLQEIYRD
Experimental: as §1, §2, §3

[4] = system: differentiated THP-1 monocytes; settings: cited from earlier work

| Structure (SMILES) | EC50 [1] [nM] | EC50 [2] | EC50 [3] [nM] | ABCA1 mRNA expression [4] | cholesterol efflux [4] |
| --- | --- | --- | --- | --- | --- |
| CCC(COc1ccc(C(F)(F)F)cc1)CSc1ccc(OC(C)(C)C(=O)O)c(C)c1 (stereo not shown) [Compound 2, 2-Methyl-2-{2-methyl-4-[2-(4-trifluoromethyl-phenoxymethyl)-butylsulfanyl]-phenoxy}-propionic acid] | 278 | 9.1 nM and 11.1 nM | 237 |  |  |
| CCC(COc1ccc(C(F)(F)F)cc1)CSc1ccc(OC(C)C(=O)O)c(C)c1 (stereo not shown) [Compound 1, 2-{2-Methyl-4-[2-(4-trifluoromethyl-phenoxymethyl)-butylsulfanyl]-phenoxy}-propionic acid] |  | 13.8 nM and 14.9 nM | 548 |  |  |
| Cc1cc(SCc2sc(-c3ccc(C(F)(F)F)cc3)nc2C)ccc1OCC(=O)O [GW501516] |  |  |  | induced ABCA1 mRNA expression | enhanced cholesterol efflux |
| CCOC(COc1ccc(C(F)(F)F)cc1)CSc1ccc(OC(C)(C)C(=O)O)c(C)c1 (stereo not shown) [Compound 3, 2-{4-[2-Ethoxy-3-(4-trifluoromethyl-phenoxy)-propylsulfanyl]-2-methyl-phenoxy}-2-methyl-propionic acid] | 565 | 34 nM and 27.5 nM | 537 |  |  |
